Results as given in patent US5583158A, “Prostaglandin E1 analogues” (Taisho Pharmaceutical Co., Ltd., priority 1992, dated 1996).

System: rabbit platelet aggregation
Assay: Test for inhibition of rabbit platelet aggregation (ADP-induced, platelet-rich plasma, method of Born)
Assay type: cell-based, rabbit (New Zealand White-strain)
Conditions: Oryctolagus cuniculus, ADP final concentration 5 μM, 37° C., 3 minutes preincubation, maximum aggregation within 5 minutes
Method: Test Example [Test for inhibition of rabbit platelet aggregation]
New Zealand White-strain rabbits (groups of four rabbits each weighing 2.5-4.0 to kg) were tested. Blood was collected from the common carotid artery of the rabbits under on ether anesthesic, and mixed with 3.2to % sodium citrate in volume ratio of 9:1. The blood was centrifuged at 1,100 rpm for 15 minutes to give a platelet-rich plasma (PRP) as a supernatant.
Blood platelet aggregation was determined according to the method of Born [Nature, Vol. 194, p. 927 (1962)]. To 275 to μl of PRP was added 1 μl of a solution of various concentrations of a test compound dissolved in ethanol; the mixture was stirred at 1,000 rpm at 37° C. for 3 minutes; then, in this state, 25 μl of an aggregation-inducing agent [adenosine diphosphate (ADP), final concentration: 5 μM] was added thereto to induce platelet aggregation; and by using an aggregometer, there was determined the maximum aggregation rate (the maximum change in light transmission within 5 minutes from the induction of platelet aggregation).
The aggregatian inhibition rate of the test compound was calculated from the maximum aggregation rate in the presence test compound relative to the maximum aggregation rate when ethanol was used instead of the solution of the test compound; the IC50 value of the test compound was determined from the concentration response curve.

SMILES	IC50 [nM]
CC(C)=CCC[C@@H](C)C[C@H](O)C#C[C@H]1[C@H](O)CC(=O)[C@@H]1CCCCOCC(=O)O [Compound 6, (17R)-20-Isopropylidene-17-methyl-13, 14-didehydro-3-oxa-PGE1]	1.27
COC(=O)COCCCC[C@H]1C(=O)C[C@@H](O)[C@@H]1C#C[C@@H](O)CC1CCCCC1 [Control B, reference compound]	134
CCCCC(C)[C@H](O)C#C[C@H]1[C@H](O)CC(=O)[C@@H]1CCCCSCC(=O)O (stereo partly drawn) [Control C, reference compound]	911
CCCCC(C)(C)C(O)C#C[C@H]1[C@H](O)CC(=O)[C@@H]1CCCCOCC(=O)OC (stereo partly drawn) [Control D, reference compound]	1520

Now those with a lower IC50, led by results:

IC50 [nM]	SMILES
0.67	COC(=O)COCCCC[C@H]1C(=O)C[C@@H](O)[C@@H]1C#C[C@@H](O)C[C@H](C)CCC=C(C)C [Compound 5, (17R)-20-Isopropylidene-17-methyl-13, 14-didehydro-3-oxa-PGE1 methyl ester]
0.66	CCCC[C@@H](C)C[C@H](O)C#C[C@H]1[C@H](O)CC(=O)[C@@H]1CCCCOCC(=O)O [Compound 2, (17R)-17,20-Dimethyl-13,14-didehydro-3-oxa-PGE1]
0.6	CCCC[C@@H](C)C[C@H](O)C#C[C@H]1[C@H](O)CC(=O)[C@@H]1CCCCOCC(=O)OC [Compound 1, (17R)-17,20-Dimethyl-13,14-didehydro-3-oxa-PGE1 methyl ester]
0.39	COC(=O)CSCCCC[C@H]1C(=O)C[C@@H](O)[C@@H]1C#C[C@@H](O)C[C@@H](C)CCC=C(C)C [Compound 3, (17S)-20-Isopropylidene-17-methyl-13, 14-didehydro-3-thia-PGE1 methyl ester]
0.26	CC(C)=CCC[C@H](C)C[C@H](O)C#C[C@H]1[C@H](O)CC(=O)[C@@H]1CCCCSCC(=O)O [Compound 4, (17S)-20-Isopropylidene-17-methyl-13,14-didehydro-3-thia-PGE1]
